20 compounds from paper PMC12635197, “Discovery of first-in-class inhibitors of the TRF1:TIN2 protein:protein interaction by fragment screening” (Scientific Reports, 2025) can be followed below.

Series [1] has as its target T1, TRF1TRFH (Homo sapiens, UniProt P54274).
T1 construct: encoding residues 47–268, UniProt identifier P54274-1; His6-MBP (TEV-cleavable) (N, cleaved yes); made in house; host or cells: E. coli BL21-CodonPlus(DE3)-RIL
T1 sequence (P54274 47-268): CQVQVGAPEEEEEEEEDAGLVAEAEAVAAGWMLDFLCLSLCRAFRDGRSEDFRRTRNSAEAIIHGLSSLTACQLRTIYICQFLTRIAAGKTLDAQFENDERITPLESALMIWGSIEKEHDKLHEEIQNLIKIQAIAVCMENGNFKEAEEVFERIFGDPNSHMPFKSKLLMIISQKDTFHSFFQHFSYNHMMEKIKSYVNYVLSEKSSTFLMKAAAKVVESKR
The series can be described thus: LO-NMR CPMG assay (relaxation-edited), singletons. In kind it is binding. To be noted: single experiment; for CPMG reduction: average peak intensity reduction on addition of TRF1TRFH, 250 µM ligand, 20 µM protein; for CPMG recovery: net recovery of peak intensity on addition of TIN2TBM peptide (40 µM) to compound plus protein. As for the experimental part:
We next used a LO-NMR CPMG assay to orthogonally validate XChem hits in solution, aiming to eliminate false positives and rank hit matter for follow-up studies. Compounds were tested as singletons and prepared in two samples containing either compound alone (sample 1) or compound + TRF1TRFH (sample 2).
The fragment screen by LO-NMR was carried out using conditions described previously, with some modifications. Fragments were dispensed in triplicate into a 384-well plate using an Echo 550 liquid handler to give a final ligand concentration of 250 µM (total sample volume of 40 µL). 40 µL of TRF1TRFH protein (in NMR buffer; 20 µM final protein concentration in the assay) were added to the ‘protein’ samples; 40 µL of TRF1TRFH protein and TIN2TBM peptide (21-mer, Ac-[…]-CONH2; 40 µM final concentration in the assay) were both added to the ‘competitor’ samples; 40 µL NMR buffer were added to the ‘compound-only’ samples. Solutions were transferred to 1.7-mm NMR tubes using a Bruker SamplePro Tube robotics system. ^1H NMR spectra were recorded on a Bruker AVIII 500 MHz spectrometer at 298 K, equipped with a 1.7-mm TXI probe, with samples in 1.7-mm SampleJET NMR tubes (Bruker). DMSO and water signals were dampened. A relaxation spin filter was applied at 400 ms. Data were processed using Bruker Topspin 4.0. Lines were broadened with LB = 3.0, and the baseline was corrected between 6.0 and 10.0 ppm.
The data were then analysed using the MNova Screen software. Only peaks between 5.5 and 9.5 ppm were considered. Peaks with a height of < 5% maximum peak height within the region of interest were considered noise, and the minimum matched peak level was set at > 51%. The relative peak intensity change (I) was calculated for all peaks in the 5.5–9.5 ppm region, for each compound, as described previously. The average integral for all peaks between 6.0 and 10.0 ppm was calculated, and the differences between compound-only, compound-plus-protein, and compound-plus-protein-plus-competitor samples were compared. The net recovery was calculated by subtracting the reduction in peak integral of the compound-plus-protein samples from the compound-plus-protein-plus-competitor samples.
For hit validation, relaxation-edited LO-NMR experiments were repeated as described above on single compounds instead of fragment cocktails.

Series [2] has as its target T1, TRF1TRFH. In words: LO-NMR R2KD assay. In kind it is binding. As to conditions: for Kd: global KD shared across 1H NMR peaks, single experiment, 95% CI in parentheses, 2 µM TRF1TRFH. As for the experimental part: Recent work by Liu and colleagues introduced a novel LO-NMR method that can be used to quantitatively determine the dissociation constant (KD) of a ligand for a protein from measured R2 values of ligand nuclei at a range of ligand concentrations.
The R2KD assay was carried out as described by Liu et al.[40]. A Bruker SamplePro liquid handler was used to prepare 10 samples: 8 samples containing an increasing ligand concentration from 50 to 500 µM whilst maintaining a constant TRF1TRFH concentration (2 µM final); and two samples containing ligand only at 200 µM and 400 µM. All ten samples were prepared from stock solutions of ligand, DMSO, protein and buffer alone using the Bruker SamplePro liquid handler prior to transfer to 3-mm NMR tubes.
NMR data were collected at 298 K on a Bruker Avance Neo 600-MHz spectrometer using the Bruker Topspin 4.0 software. T2 relaxation experiments were performed using the standard Bruker CPMG pulse program with Excitation Sculpting incorporated to suppress water signal. The spin-echo period (delay-180°-delay) was set to 1 ms (d20 = 500 µs), and the relaxation delay (d1) was set to 10 s. The sudo-2D experiment contained nine slices with the spin echo period repeated at the following times: 4, 20, 100, 200, 300, 500, 700, 1000, and 2000 ms. T2 relaxation data were processed using the MestReNova 14.1 data analysis module to obtain integrals of individual[1]H-NMR signals, which were used to calculate R2 with the equation I = I0e^(−tR2). GraphPad Prism 9.0.0 was used to fit R2 values of individual compound peaks to obtain an overall (shared) KD value from all peaks of the compound.

A short description of series [3]: Fragment solubility assay (quantitative 1H NMR). It counts as physicochemical. To be noted: NMR buffer, overnight incubation, 1H NMR quantified against 1 mM caffeine standard. As for the experimental part: Aqueous solubility test samples were prepared by adding 3.6 µL compound (50 mM stock in 100% DMSO-d6) to 176.4 µL NMR buffer in a microcentrifuge tube. The samples were incubated overnight and transferred to a 3-mm NMR tube (Bruker, Part No. Z112272). ^1H NMR spectra were recorded, with the DMSO and water signals dampened. 1 mM caffeine (Sigma, C1778 in PBS (pH 7.4) with 1% DMSO-d6) was used as a standard to quantify the ligand signals and determine the concentration of samples.
NMR data were collected on a Bruker Avance Neo 600-MHz spectrometer equipped with a 5 mm TCI-CryoProbe. The ^1H spectrum was referenced to the internal deuterated solvent. The operating frequency for ^1H was 600 MHz. All NMR data were acquired at the temperature of 298 K. All data were acquired and processed using Bruker Topspin 4.0. The quantitative ^1H-NMR spectrum was acquired using a Bruker standard 1D lc1pngppsf2 pulse sequence with 32 scans. The sweep width was 6.2 ppm with O1P set to 8.8 ppm, and the FID contained 16k time-domain data points. Relaxation delay was set to 20 s. Water signal was suppressed.

Series [4] concerns the target T2, TRF1TRFH:TIN2-FAM interaction (Homo sapiens, UniProt P54274).
T2 construct: encoding residues 47–268, UniProt identifier P54274-1; His6-MBP (TEV-cleavable) (N, cleaved yes); made in house; host or cells: E. coli BL21-CodonPlus(DE3)-RIL (TRF1TRFH); probe peptide from Pepceuticals
T2 sequence (P54274 47-268): T1 sequence (P54274 47-268)
The series can be described thus: Fluorescence polarisation (FP) competition assay, TIN2-FAM displacement. In kind it is binding. To be noted: 0.6 µM TRF1TRFH, 25 nM TIN2-FAM; mean of three independent experiments, 95% CI in parentheses. As for the experimental part:
To complement the biophysical R2KD assay, we developed a fluorescence polarisation (FP) competition assay based on a TIN2TBM peptide labelled with an N-terminal 5(6)-carboxyfluorescein (6-FAM) fluorophore. […] The NMR hit analogues were then titrated against constant concentrations of TRF1TRFH and TIN2-FAM (0.6 µM and 25 nM, respectively).
A TIN2TBM peptide was obtained from Pepceuticals with a 5(6)-carboxyfluorescein (FAM) fluorophore added to the N-terminus for fluorescence studies. To determine the assay window for the FP assay, the TIN2-FAM probe was prepared as a 16-µM stock in aqueous buffer and titrated from 0 to 400 nM against either a constant concentration of TRF1TRFH (0.5 µM in FP buffer) or FP buffer alone (25 mM HEPES-NaOH pH 7.5, 100 mM NaCl, 1 mM TCEP, 0.05% w/v CHAPS). Samples were prepared to a final volume of 10 µL in Packard Proxiplate 384 F plus plates; plates were incubated in darkness at room temperature for 1 h prior to measuring fluorescence intensities and calculating FP values, using a BMG Labtech PHERAstar FSX plate reader with an FP 485 520 520 optic module. A settling time of 0.3 s was used, and the number of flashes was set to 200 for FP measurements. For each plate, a target mP of 35 was set and the gain adjusted on the TIN2-FAM probe control well minus protein.
For the FP competition assay, the unlabelled compounds (from 50-mM DMSO stocks) were first dispensed in duplicate into wells of a Proxiplate 384 F Plus plate using an Echo 550 acoustic liquid handler to give a 13-point concentration range from 0.2 to 500 µM. Wells were then backfilled to 250 nL with DMSO before the addition of 5 µL of 2x TRF1TRFH (0.6 µM final concentration) and 4.75 µL 2x TIN2-FAM (25 nM final concentration). Plates were spun and sealed prior to incubation for 1 h in darkness. FP measurements were then carried out as described above.
(Polarisation of emitted light reports the rotation of a fluorescent probe.)

Structures are written as SMILES. Some results are limits rather than exact numbers.

At TRF1TRFH [1], `O=C(NC1CC1)c1cnn2cccnc12` [Compound 1] had a CPMG reduction of 13%.
Still for that read-out and setting: for `CN(C)C(=O)COc1cccc(F)c1` [Compound 6] the value was 12%.
Same read-out and setting: for `NS(=O)(=O)c1ccccc1OC(F)F` [Compound 15] the value was 0%; for `c1ccc(-c2noc(C3CCC3)n2)nc1` [Compound 16], 22%.
For orientation: Kd means the constant that tells how readily two partners part at equilibrium. `CCOc1ccc(S(=O)(=O)O)c2ccccc12` [Compound 27]: the Kd at TRF1TRFH [2] was 280 µM. Moreover, the “Kin. Sol.” value in series [3] is given as 810 µM. Further, on TRF1TRFH [1], the CPMG reduction was 96% and the CPMG recovery is 49%.
With `COc1ccc(S(=O)(=O)O)c2ccccc12` [Compound 28, 4-methoxy-1-naphthalenesulfonic acid], the “Kin. Sol.” value in series [3] was found to be 610 µM. Also, on TRF1TRFH [1], the CPMG reduction was determined as 87% and the CPMG recovery was determined as 22%.
Regarding `O=S(=O)(O)c1ccc(O)c2ccccc12` [Compound 29, 1-naphthol-4-sulfonic acid], the Kd on TRF1TRFH [2] was greater than 1000 µM. In addition, in series [3], the “Kin. Sol.” value was found to be 840 µM.
On to `CC(C)Oc1ccc(S(=O)(=O)[O-])c2ccccc12.[Na+]` [Compound 30], for which, at TRF1TRFH [2], the Kd is greater than 1000 µM. Moreover, in series [3], the “Kin. Sol.” value stood at 860 µM. On TRF1TRFH [1], the CPMG reduction is 83% and the CPMG recovery turned out to be 4%.
As a reminder, the IC50 is the concentration needed to halve the response being measured. Consider `O=S(=O)(O)c1ccc(OCc2ccccc2)c2ccccc12` [Compound 32], for which the “increase in affinity relative to ethoxy parent 27” value at TRF1TRFH [2] (R2KD assay) is on record as “five-fold increase in affinity”. Besides, the Kd at TRF1TRFH [2] is 61 µM. Also, the “Kin. Sol.” value in series [3] is 850 µM. Also, at TRF1TRFH [1], the CPMG reduction amounted to 100% and the CPMG recovery was 29%. The IC50 in series [4] is 150 µM.
For the compound `CCOc1ccc(S(N)(=O)=O)c2ccccc12` [Compound 33, 4-ethoxynaphthalene-1-sulfonamide], the “Kin. Sol.” value in series [3] was determined as 50 µM. For the same compound, at TRF1TRFH [1], the CPMG reduction is 79% and the CPMG recovery is 1%.
The corresponding values for `CCOc1ccc(C(=O)O)c2ccccc12` [Compound 34, 4-ethoxy-1-naphthoic acid] are 895 µM, 28% and 20%.
For the compound `CCOc1ccc(S(=O)(=O)N(C)C)c2ccccc12` [Compound 35], the “Kin. Sol.” value in series [3] was less than 50 µM.
Still for that read-out and setting: for `CCOc1ccc(S(=O)(=O)NCc2ccccc2)c2ccccc12` [Compound 36] the value was 0 µM.
On to `Cc1cccc(COc2ccc(S(=O)(=O)[O-])c3ccccc23)c1.[Na+]` [Compound 37], for which, at TRF1TRFH [2], the Kd amounted to 83 µM. Also, the “Kin. Sol.” value in series [3] was 460 µM. For the same compound, the IC50 in series [4] was found to be 200 µM.
For `COc1cccc(COc2ccc(S(=O)(=O)[O-])c3ccccc23)c1.[Na+]` [Compound 38], in that order: 53 µM, 570 µM and 150 µM.
For `COc1ccccc1COc1ccc(S(=O)(=O)[O-])c2ccccc12.[Na+]` [Compound 39], in that order: 110 µM, 320 µM and 170 µM.
The corresponding values for `CCCOc1cccc(COc2ccc(S(=O)(=O)[O-])c3ccccc23)c1.[Na+]` [Compound 41] are 46 µM, 590 µM and 23 µM.
Turning to `O=S(=O)([O-])c1ccc(OCc2cccc(OC(F)(F)F)c2)c2ccccc12.[Na+]` [Compound 42], the “Kin. Sol.” value in series [3] worked out at 260 µM. Moreover, the IC50 in series [4] is 80 µM.
On to `O=S(=O)([O-])c1ccc(OCc2cccc(Cl)c2)c2ccccc12.[Na+]` [Compound 43], for which, on TRF1TRFH [2], the Kd was determined as 140 µM. Further, in series [3], the “Kin. Sol.” value amounted to 500 µM. The IC50 in series [4] was determined as 180 µM.
As for `O=S(=O)([O-])c1ccc(OCc2cccc(Br)c2)c2ccccc12.[Na+]` [Compound 44], the “Kin. Sol.” value in series [3] is recorded as 160 µM. The IC50 in series [4] amounted to 110 µM.
